Results from patent publication US20030232102A1, “Total glycosides of paeony, method to prepare the same and uses thereof” (priority 2001, published 2003).

Test system: patients with rheumatoid arthritis
Assay: Phase II clinical study in rheumatoid arthritis: effectiveness (symptoms, physical examination, comprehensive evaluation)
Assay type: in vivo, human
Design: ESR Reduced to norm., % of cases / CRP Reduced to Norm., % of cases / RF Reduced to norm., % of cases: concentration or dose not given beside the values
Protocol: It was a multiple-centered, randomized, parallel, positive controlled Phrase II clinical study.
All clinical studies except the above mentioned 120 cases were conducted in a single-blind condition.
1) Age 18˜65, male or female who agreed to the investigational treatment for 12 weeks to 6 months. History of rheumatoid arthritis was within 3 years.
2) Documented Rheumatoid Arthritis based on a diagnostic criteria of 1987 Revised ARA Criteria for the Classification of Rheumatoid Arthritis
3) Diagnosis of a typical active stage of RA: A patient is said to be on an active stage of RA if he or she has satisfied at least 4 of the following 5 items.
2) Patient who quitted the treatment for the ineffectiveness 7 days after the start of administration was included in the efficacy analysis. Patient who quitted the treatment for the side effects was not included in the efficacy analysis but the safety analyses.
1) The placebo run-in period: Seven days before administration, the selected patients stopped using NSAIDs and took a placebo instead.
4) For the double-blinded study, patients in both groups would be given capsules and tablets in same shapes, odors and amount. Placebo of capsule or tablet were included. Neither doctors nor patients can tell the group of treatment from the other.
5) No analgesics, anti-inflammation drugs, immune regulatory agents or muscle relaxants were allowed during the period of study. Acetaminophen could be used when necessary. If a physical therapy was started before enrollment, it was allowed to be continued, yet, it should be taken all the way during the period of clinical study.
1) Pain at rest: patients were asked to scale the degree of pain with a ruler [drawing 1]
2) Morning stiffness: Patients were requested to make notes on duration of their morning joint stiffness, a time span from its appearance to recovery in minutes every morning. The doctors should evaluate their record sheets by questioning them. For example “Do you fell stiff in any of your joints? (today, these 2 days)” When get a “yes” in answer, then “when did you get up today?” and “when does the stiffness be gone?”
3) Swelling of joints: Take count of the index of joint swelling by summing up the degree number of each joint.
0=normal; 1=swelling soft tissues (synovium) without hydrarthrus; 2=swelling soft tissues (synovium) with hydrarthrus.
4) Tenderness of joints: Take count of the index of joint tenderness by summing up the degree number of each joint:
5) Grip strength: Fold the arm belt of a sphygmomanometer twice and seal it in a small cloth bag suitable for a hand to hold. Aerates the belt in pressure of 20 mm Hg. Patients were asked to grip the bag with their not braced left and right hand, the grip strength is the average pressures in mm Hg for three times.
6) Time consumed for a 15 meters' walk (Seconds): Time started from a calm standing to the final of 15 meters. The average of three times.
7) General joint function (criteria of ARA):
8) Self-scoring and physician's grading on disease conditions: Both patients and doctors were required to submit their score sheet every time on follow-up survey. The scoring was made upon following criteria:
9) Patient's general condition: condition on the physical strength, sleep and appetite.
No effect: less than 30% improvement in symptoms and physical signs.
Improved: About 50% improvement in symptoms and physical signs (including general conditions in physical strength, sleep and appetite).

With `CN(Cc1cnc2nc(N)nc(N)c2n1)c1ccc(C(=O)N[C@@H](CCC(=O)O)C(=O)O)cc1` [MTX, Methotrexate] as the molecule, how does the “ITJ Disappeared, % of cases” value (overall group, 12 weeks) read?
Its value is 6.3%.

And the “ITJ Disappeared, cases” value (overall group, 12 weeks)?
The value was 9.

And the “MR 50% reduced, % of cases” value (overall group, 12 weeks)?
The value was 67.6%.

And the “MR 50% reduced, cases” value (overall group, 12 weeks)?
The value was 96.

And the “MR Disappeared, % of cases” value (overall group, 12 weeks)?
Its value is 11.3%.

What about the “MR Disappeared, cases” value (overall group, 12 weeks) of the same molecule?
Its value is 34.

What about the “NSJ 50% reduced, % of cases” value (overall group, 12 weeks) of the same molecule?
Its value is 61.3%.

And the “NSJ 50% reduced, cases” value (overall group, 12 weeks)?
The value was 87.

What about the “NSJ Disappeared, % of cases” value (overall group, 12 weeks) of the same molecule?
Its value is 19.0%.

And the “NSJ Disappeared, cases” value (overall group, 12 weeks)?
The value was 27.

What about the “RF 2 dilutions lower, % of cases” value (overall group, 12 weeks) of the same molecule?
Its value is 59.9%.

What about the “RF 2 dilutions lower, cases” value (overall group, 12 weeks) of the same molecule?
Its value is 85.

And the “RF Reduced to norm., % of cases” value (overall group, 12 weeks)?
The value was 11.3%.

What about the “RF Reduced to norm., cases” value (overall group, 12 weeks) of the same molecule?
The value was 16.

What about the “AGS 50% increased, % of cases” value (overall group, 24 weeks) of the same molecule?
Its value is 16.7%.

And the “AGS 50% increased, cases” value (overall group, 24 weeks)?
The value was 10.

What about the “CRP 50% reduced, % of cases” value (overall group, 24 weeks) of the same molecule?
The value was 18.3%.

And the “CRP 50% reduced, cases” value (overall group, 24 weeks)?
The value was 11.

What about the “CRP Reduced to Norm., % of cases” value (overall group, 24 weeks) of the same molecule?
Its value is 40.0%.

And the “CRP Reduced to Norm., cases” value (overall group, 24 weeks)?
The value was 24.

What about the “ESR 50% reduced, % of cases” value (overall group, 24 weeks) of the same molecule?
The value was 23.3%.

And the “ESR 50% reduced, cases” value (overall group, 24 weeks)?
Its value is 14.

And the “ESR Reduced to norm., % of cases” value (overall group, 24 weeks)?
Its value is 43.3%.

And the “ESR Reduced to norm., cases” value (overall group, 24 weeks)?
Its value is 26.

And the “ITJ 50% reduced, % of cases” value (overall group, 24 weeks)?
Its value is 58.3%.

What about the “ITJ 50% reduced, cases” value (overall group, 24 weeks) of the same molecule?
Its value is 35.

What about the “ITJ Disappeared, % of cases” value (overall group, 24 weeks) of the same molecule?
Its value is 10.0%.

And the “ITJ Disappeared, cases” value (overall group, 24 weeks)?
The value was 6.

And the “MR 50% reduced, % of cases” value (overall group, 24 weeks)?
The value was 50.0%.

And the “MR 50% reduced, cases” value (overall group, 24 weeks)?
The value was 30.

And the “MR Disappeared, % of cases” value (overall group, 24 weeks)?
The value was 31.7%.

And the “MR Disappeared, cases” value (overall group, 24 weeks)?
Its value is 19.

And the “NSJ 50% reduced, % of cases” value (overall group, 24 weeks)?
The value was 46.7%.

What about the “NSJ 50% reduced, cases” value (overall group, 24 weeks) of the same molecule?
The value was 28.

And the “NSJ Disappeared, % of cases” value (overall group, 24 weeks)?
The value was 26.7%.

What about the “NSJ Disappeared, cases” value (overall group, 24 weeks) of the same molecule?
The value was 16.

And the “RF 2 dilutions lower, % of cases” value (overall group, 24 weeks)?
The value was 38.3%.

And the “RF 2 dilutions lower, cases” value (overall group, 24 weeks)?
Its value is 23.

And the “RF Reduced to norm., % of cases” value (overall group, 24 weeks)?
Its value is 10.0%.

What about the “RF Reduced to norm., cases” value (overall group, 24 weeks) of the same molecule?
The value was 6.

What about the “Changes in RA perimeters: GS-L” value (overall groups, 4 weeks, mean) of the same molecule?
Its value is 12.56.

What about the “Changes in RA perimeters: GS-R” value (overall groups, 4 weeks, mean) of the same molecule?
Its value is 11.60.

And the “Changes in RA perimeters: ISJ” value (overall groups, 4 weeks, mean)?
Its value is 3.73.

And the “Changes in RA perimeters: ITJ” value (overall groups, 4 weeks, mean)?
The value was 6.04.

What about the “Changes in RA perimeters: MR” value (overall groups, 4 weeks, mean) of the same molecule?
Its value is 35.76.

And the “Changes in RA perimeters: NSJ” value (overall groups, 4 weeks, mean)?
Its value is 2.10.

And the “Changes in RA perimeters: NTJ” value (overall groups, 4 weeks, mean)?
Its value is 2.61.

And the “Changes in RA perimeters: PR” value (overall groups, 4 weeks, mean)?
The value was 1.05.

And the “Changes in RA perimeters: GS-L” value (overall groups, 8 weeks, mean)?
Its value is 16.66.

What about the “Changes in RA perimeters: GS-R” value (overall groups, 8 weeks, mean) of the same molecule?
The value was 19.36.

What about the “Changes in RA perimeters: ITJ” value (overall groups, 8 weeks, mean) of the same molecule?
Its value is 12.66.

What about the “Changes in RA perimeters: MR” value (overall groups, 8 weeks, mean) of the same molecule?
Its value is 54.20.

And the “Changes in RA perimeters: NSJ” value (overall groups, 8 weeks, mean)?
The value was 4.43.

What about the “Changes in RA perimeters: NTJ” value (overall groups, 8 weeks, mean) of the same molecule?
The value was 5.38.

What about the “Changes in RA perimeters: PR” value (overall groups, 8 weeks, mean) of the same molecule?
Its value is 1.94.

And the “Changes in RA perimeters: TSJ” value (overall groups, 8 weeks, mean)?
Its value is 6.59.

What about the “Changes in RA perimeters: GS-L” value (overall groups, 12 weeks, mean) of the same molecule?
The value was 23.06.

What about the “Changes in RA perimeters: GS-R” value (overall groups, 12 weeks, mean) of the same molecule?
Its value is 28.10.

What about the “Changes in RA perimeters: ISJ” value (overall groups, 12 weeks, mean) of the same molecule?
The value was 10.25.

What about the “Changes in RA perimeters: ITJ” value (overall groups, 12 weeks, mean) of the same molecule?
The value was 18.77.

What about the “Changes in RA perimeters: MR” value (overall groups, 12 weeks, mean) of the same molecule?
The value was 78.52.

And the “Changes in RA perimeters: NSJ” value (overall groups, 12 weeks, mean)?
The value was 6.77.

And the “Changes in RA perimeters: NTJ” value (overall groups, 12 weeks, mean)?
The value was 8.78.

What about the “Changes in RA perimeters: GS-L” value (overall groups, 24 weeks, mean) of the same molecule?
The value was 31.83.

What about the “Changes in RA perimeters: GS-R” value (overall groups, 24 weeks, mean) of the same molecule?
Its value is 30.90.

What about the “Changes in RA perimeters: ISJ” value (overall groups, 24 weeks, mean) of the same molecule?
The value was 6.88.

And the “Changes in RA perimeters: ITJ” value (overall groups, 24 weeks, mean)?
Its value is 13.94.

And the “Changes in RA perimeters: MR” value (overall groups, 24 weeks, mean)?
Its value is 60.70.

What about the “Changes in RA perimeters: NSJ” value (overall groups, 24 weeks, mean) of the same molecule?
Its value is 5.39.

What about the “Changes in RA perimeters: NTJ” value (overall groups, 24 weeks, mean) of the same molecule?
Its value is 9.05.

And the “Changes in RA perimeters: PR” value (overall groups, 24 weeks, mean)?
Its value is 2.62.
